Legend:
Assay in all cases: scanMAX Kinase panel (DiscoverX)
Assay type in all cases: binding
EGFR(G719C) = target: T1, EGFR(G719C) (Homo sapiens, UniProt P00533, G719C)
T1 construct: purchased DiscoverX scanMAX Kinase panel
Summary of the method: (§1)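 % ctrl @ 1 μM (DMSO stock vehicle); normalisation: positive control set to 0, negative control to 100.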

BMX = target: T2, BMX (Homo sapiens, UniProt P51813); settings: read-out: % Cont @ 1 uM
T2 construct: purchased DiscoverX scanMAX Kinase panel
Summary of the method: as §1

RIPK2 = target: T3, RIPK2 (Homo sapiens, UniProt O43353); settings: read-out: % Cont @ 1 uM
T3 construct: purchased DiscoverX scanMAX Kinase panel
Summary of the method: as §1

TNK1 = target: T4, TNK1 (Homo sapiens, UniProt Q13470); settings: read-out: % Cont @ 1 uM
T4 construct: purchased DiscoverX scanMAX Kinase panel
T4 sequence (Q13470 whole entry): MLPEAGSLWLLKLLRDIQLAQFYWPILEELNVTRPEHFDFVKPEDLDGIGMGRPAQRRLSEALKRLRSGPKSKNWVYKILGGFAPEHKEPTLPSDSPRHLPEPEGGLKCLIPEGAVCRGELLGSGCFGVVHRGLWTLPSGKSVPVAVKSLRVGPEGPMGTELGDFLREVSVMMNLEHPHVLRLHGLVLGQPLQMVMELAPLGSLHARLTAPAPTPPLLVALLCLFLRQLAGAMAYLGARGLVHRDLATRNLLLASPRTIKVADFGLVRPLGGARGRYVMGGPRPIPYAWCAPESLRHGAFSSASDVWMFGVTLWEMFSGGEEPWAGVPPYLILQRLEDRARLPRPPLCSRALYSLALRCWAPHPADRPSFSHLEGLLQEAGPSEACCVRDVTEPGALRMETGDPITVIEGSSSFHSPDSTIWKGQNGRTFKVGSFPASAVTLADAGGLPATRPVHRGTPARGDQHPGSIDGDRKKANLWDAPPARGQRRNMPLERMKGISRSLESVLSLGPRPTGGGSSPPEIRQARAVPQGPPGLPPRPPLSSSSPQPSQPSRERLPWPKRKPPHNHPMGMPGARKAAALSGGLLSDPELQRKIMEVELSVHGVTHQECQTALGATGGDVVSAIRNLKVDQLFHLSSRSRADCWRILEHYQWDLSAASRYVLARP
Summary of the method: as §1

p38-gamma = target: T5, p38-gamma (Homo sapiens, UniProt P53778); settings: read-out: % Cont @ 1 uM
T5 construct: purchased DiscoverX scanMAX Kinase panel
T5 sequence (P53778 whole entry): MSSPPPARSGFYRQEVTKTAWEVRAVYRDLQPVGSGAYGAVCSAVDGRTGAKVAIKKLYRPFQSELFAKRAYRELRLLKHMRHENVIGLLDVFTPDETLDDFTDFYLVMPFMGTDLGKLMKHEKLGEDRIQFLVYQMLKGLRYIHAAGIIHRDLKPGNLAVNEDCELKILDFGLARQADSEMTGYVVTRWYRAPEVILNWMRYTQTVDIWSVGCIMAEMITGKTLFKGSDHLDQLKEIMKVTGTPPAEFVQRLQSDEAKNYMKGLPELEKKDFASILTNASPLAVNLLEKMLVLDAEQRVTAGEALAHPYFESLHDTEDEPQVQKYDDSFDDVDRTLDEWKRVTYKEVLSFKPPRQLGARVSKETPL
Summary of the method: as §1

FGFR2 = target: T6, FGFR2 (Homo sapiens, UniProt P21802); settings: read-out: % Cont @ 1 uM
T6 construct: purchased DiscoverX scanMAX Kinase panel
Summary of the method: as §1

[1] = target: T7, ABL1(F317I)-nonphosphorylated (Homo sapiens, UniProt P00519, F317I); settings: read-out: % Cont @ 1 uM
T7 construct: purchased DiscoverX
Summary of the method: as §1

[2] = target: T8, ABL1(F317I)-phosphorylated (Homo sapiens, UniProt P00519, F317I); settings: read-out: % Cont @ 1 uM
T8 construct: purchased DiscoverX
Summary of the method: as §1

[3] = target: T9, ABL1(T315I)-nonphosphorylated (Homo sapiens, UniProt P00519, T315I); settings: read-out: % Cont @ 1 uM
T9 construct: purchased DiscoverX
Summary of the method: as §1

MEK5 = target: T10, MEK5 (Homo sapiens, UniProt Q13163); settings: read-out: % Cont @ 1 uM
T10 construct: purchased DiscoverX scanMAX Kinase panel
T10 sequence (Q13163 whole entry): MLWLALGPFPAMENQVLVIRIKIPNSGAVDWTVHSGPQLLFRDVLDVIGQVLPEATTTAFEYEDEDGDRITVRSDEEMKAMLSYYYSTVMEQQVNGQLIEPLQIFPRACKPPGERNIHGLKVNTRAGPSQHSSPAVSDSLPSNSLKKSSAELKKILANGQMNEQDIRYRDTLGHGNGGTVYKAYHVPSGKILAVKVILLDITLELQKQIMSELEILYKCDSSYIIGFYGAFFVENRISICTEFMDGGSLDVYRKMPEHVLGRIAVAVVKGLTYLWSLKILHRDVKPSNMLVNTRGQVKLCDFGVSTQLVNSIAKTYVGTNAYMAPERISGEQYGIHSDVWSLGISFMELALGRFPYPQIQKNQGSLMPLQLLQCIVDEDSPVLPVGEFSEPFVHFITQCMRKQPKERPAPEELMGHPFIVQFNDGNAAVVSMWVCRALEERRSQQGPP
Summary of the method: as §1

FLT3(K663Q) = target: T11, FLT3(K663Q) (Homo sapiens, UniProt P36888, K663Q); settings: read-out: % Cont @ 1 uM
T11 construct: purchased DiscoverX scanMAX Kinase panel
Summary of the method: as §1

MINK = target: T12, MINK (Homo sapiens, UniProt Q8N4C8); settings: read-out: % Cont @ 1 uM
T12 construct: purchased DiscoverX scanMAX Kinase panel
Summary of the method: as §1

PFTAIRE2 = target: T13, PFTAIRE2 (Homo sapiens, UniProt Q96Q40); settings: read-out: % Cont @ 1 uM
T13 construct: purchased DiscoverX scanMAX Kinase panel
T13 sequence (Q96Q40 whole entry): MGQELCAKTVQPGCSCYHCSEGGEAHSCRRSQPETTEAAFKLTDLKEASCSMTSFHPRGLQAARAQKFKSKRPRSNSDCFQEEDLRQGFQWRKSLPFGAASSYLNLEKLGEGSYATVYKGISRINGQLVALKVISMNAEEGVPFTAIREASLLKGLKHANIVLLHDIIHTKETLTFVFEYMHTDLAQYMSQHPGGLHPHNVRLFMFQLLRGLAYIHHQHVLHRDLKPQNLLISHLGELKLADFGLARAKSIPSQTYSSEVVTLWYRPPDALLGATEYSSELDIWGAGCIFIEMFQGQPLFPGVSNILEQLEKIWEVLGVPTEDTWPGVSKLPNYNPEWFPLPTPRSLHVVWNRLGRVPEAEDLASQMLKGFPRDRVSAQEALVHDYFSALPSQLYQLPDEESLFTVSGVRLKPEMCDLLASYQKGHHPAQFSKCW
Summary of the method: as §1

FGFR3 = target: T14, FGFR3 (Homo sapiens, UniProt P22607); settings: read-out: % Cont @ 1 uM
T14 construct: purchased DiscoverX scanMAX Kinase panel
Summary of the method: as §1

PDGFRA = target: T15, PDGFRA (Homo sapiens, UniProt P16234); settings: read-out: % Cont @ 1 uM
T15 construct: purchased DiscoverX scanMAX Kinase panel
Summary of the method: as §1

CIT = target: T16, CIT (Homo sapiens, UniProt O14578)
T16 construct: purchased DiscoverX scanMAX Kinase panel
Summary of the method: as §1

KIT(D816H) = target: T17, KIT(D816H) (Homo sapiens, UniProt P10721, D816H); settings: read-out: % Cont @ 1 uM
T17 construct: purchased DiscoverX scanMAX Kinase panel
Summary of the method: as §1

AURKB = target: T18, AURKB (Homo sapiens, UniProt Q96GD4); settings: read-out: % Cont @ 1 uM
T18 construct: purchased DiscoverX scanMAX Kinase panel
Summary of the method: as §1

TEC = target: T19, TEC (Homo sapiens, UniProt P42680); settings: read-out: % Cont @ 1 uM
T19 construct: purchased DiscoverX scanMAX Kinase panel
Summary of the method: as §1

LOK = target: T20, LOK (Homo sapiens, UniProt O94804)
T20 construct: purchased DiscoverX scanMAX Kinase panel
Summary of the method: as §1

EPHA3 = target: T21, EPHA3 (Homo sapiens, UniProt P29320); settings: read-out: % Cont @ 1 uM
T21 construct: purchased DiscoverX scanMAX Kinase panel
T21 sequence (P29320 21-983): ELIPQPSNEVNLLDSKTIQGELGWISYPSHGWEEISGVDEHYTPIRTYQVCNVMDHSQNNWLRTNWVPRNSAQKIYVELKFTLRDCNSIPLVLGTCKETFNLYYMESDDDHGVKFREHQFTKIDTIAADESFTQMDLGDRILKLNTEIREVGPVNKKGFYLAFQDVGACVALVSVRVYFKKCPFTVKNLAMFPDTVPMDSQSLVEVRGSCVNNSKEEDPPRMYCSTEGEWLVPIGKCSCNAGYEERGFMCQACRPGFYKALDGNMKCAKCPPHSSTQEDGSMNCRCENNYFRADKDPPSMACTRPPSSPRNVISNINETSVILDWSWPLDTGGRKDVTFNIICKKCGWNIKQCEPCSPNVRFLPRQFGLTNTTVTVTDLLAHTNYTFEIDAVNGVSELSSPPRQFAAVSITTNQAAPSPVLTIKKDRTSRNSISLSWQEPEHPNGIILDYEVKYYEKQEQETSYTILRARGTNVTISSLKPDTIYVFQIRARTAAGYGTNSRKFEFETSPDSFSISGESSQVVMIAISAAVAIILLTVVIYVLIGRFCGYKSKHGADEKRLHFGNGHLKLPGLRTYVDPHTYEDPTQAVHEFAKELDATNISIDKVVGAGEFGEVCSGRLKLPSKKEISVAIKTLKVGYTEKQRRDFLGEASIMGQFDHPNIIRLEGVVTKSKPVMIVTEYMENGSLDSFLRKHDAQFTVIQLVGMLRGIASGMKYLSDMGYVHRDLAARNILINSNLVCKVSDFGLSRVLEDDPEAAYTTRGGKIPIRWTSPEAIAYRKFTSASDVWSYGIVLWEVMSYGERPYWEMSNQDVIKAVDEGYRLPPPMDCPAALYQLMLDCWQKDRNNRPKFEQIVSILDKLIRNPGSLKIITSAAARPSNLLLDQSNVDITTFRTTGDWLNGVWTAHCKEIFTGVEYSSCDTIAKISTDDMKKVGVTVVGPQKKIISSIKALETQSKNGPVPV
Summary of the method: as §1

EGFR(E746-A750del) = target: T22, EGFR(E746-A750del) (Homo sapiens, UniProt P00533, DEL746-750)
T22 construct: purchased DiscoverX scanMAX Kinase panel
Summary of the method: as §1

AURKC = target: T23, AURKC (Homo sapiens, UniProt Q9UQB9); settings: read-out: % Cont @ 1 uM
T23 construct: purchased DiscoverX scanMAX Kinase panel
T23 sequence (Q9UQB9 whole entry): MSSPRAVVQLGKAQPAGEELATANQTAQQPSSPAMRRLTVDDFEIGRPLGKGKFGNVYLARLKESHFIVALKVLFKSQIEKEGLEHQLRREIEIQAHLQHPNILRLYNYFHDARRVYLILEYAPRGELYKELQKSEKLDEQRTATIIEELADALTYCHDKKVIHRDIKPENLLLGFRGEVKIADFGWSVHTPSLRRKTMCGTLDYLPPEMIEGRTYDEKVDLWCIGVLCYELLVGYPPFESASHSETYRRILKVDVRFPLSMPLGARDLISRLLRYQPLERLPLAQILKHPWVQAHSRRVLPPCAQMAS
Summary of the method: as §1

CDKL2 = target: T24, CDKL2 (Homo sapiens, UniProt Q92772); settings: read-out: % Cont @ 1 uM
T24 construct: purchased DiscoverX scanMAX Kinase panel
Summary of the method: as §1

TRKB = target: T25, TRKB (Homo sapiens, UniProt Q16620); settings: read-out: % Cont @ 1 uM
T25 construct: purchased DiscoverX scanMAX Kinase panel
Summary of the method: as §1

EPHB2 = target: T26, EPHB2 (Homo sapiens, UniProt P29323)
T26 construct: purchased DiscoverX scanMAX Kinase panel
Summary of the method: as §1

TRKC = target: T27, TRKC (Homo sapiens, UniProt Q16288); settings: read-out: % Cont @ 1 uM
T27 construct: purchased DiscoverX scanMAX Kinase panel
Summary of the method: as §1

CDC2L2 = target: T28, CDC2L2 (Homo sapiens, UniProt Q9UQ88); settings: read-out: % Cont @ 1 uM
T28 construct: purchased DiscoverX scanMAX Kinase panel
Summary of the method: as §1

EGFR(G719S) = target: T29, EGFR(G719S) (Homo sapiens, UniProt P00533, G719S)
T29 construct: purchased DiscoverX scanMAX Kinase panel
Summary of the method: as §1

FLT3(ITD, F691L) = tested on: FLT3(ITD, F691L)
Summary of the method: as §1

YSK4 = target: T30, YSK4 (Homo sapiens, UniProt Q56UN5); settings: read-out: % Cont @ 1 uM
T30 construct: purchased DiscoverX scanMAX Kinase panel
Summary of the method: as §1

EPHA4 = target: T31, EPHA4 (Homo sapiens, UniProt P54764); settings: read-out: % Cont @ 1 uM
T31 construct: purchased DiscoverX scanMAX Kinase panel
Summary of the method: as §1

ABL1-phosphorylated = target: T32, ABL1-phosphorylated (Homo sapiens, UniProt P00519); settings: read-out: % Cont @ 1 uM
T32 construct: purchased DiscoverX scanMAX Kinase panel
Summary of the method: as §1

MKNK1 = target: T33, MKNK1 (Homo sapiens, UniProt Q9BUB5); settings: read-out: % Cont @ 1 uM
T33 construct: purchased DiscoverX scanMAX Kinase panel
Summary of the method: as §1

MERTK = target: T34, MERTK (Homo sapiens, UniProt Q12866); settings: read-out: % Cont @ 1 uM
T34 construct: purchased DiscoverX scanMAX Kinase panel
Summary of the method: as §1

FLT3(D835V) = target: T35, FLT3(D835V) (Homo sapiens, UniProt P36888, D835V); settings: read-out: % Cont @ 1 uM
T35 construct: purchased DiscoverX scanMAX Kinase panel
Summary of the method: as §1

FYN = target: T36, FYN (Homo sapiens, UniProt P06241); settings: read-out: % Cont @ 1 uM
T36 construct: purchased DiscoverX scanMAX Kinase panel
T36 sequence (P06241 whole entry): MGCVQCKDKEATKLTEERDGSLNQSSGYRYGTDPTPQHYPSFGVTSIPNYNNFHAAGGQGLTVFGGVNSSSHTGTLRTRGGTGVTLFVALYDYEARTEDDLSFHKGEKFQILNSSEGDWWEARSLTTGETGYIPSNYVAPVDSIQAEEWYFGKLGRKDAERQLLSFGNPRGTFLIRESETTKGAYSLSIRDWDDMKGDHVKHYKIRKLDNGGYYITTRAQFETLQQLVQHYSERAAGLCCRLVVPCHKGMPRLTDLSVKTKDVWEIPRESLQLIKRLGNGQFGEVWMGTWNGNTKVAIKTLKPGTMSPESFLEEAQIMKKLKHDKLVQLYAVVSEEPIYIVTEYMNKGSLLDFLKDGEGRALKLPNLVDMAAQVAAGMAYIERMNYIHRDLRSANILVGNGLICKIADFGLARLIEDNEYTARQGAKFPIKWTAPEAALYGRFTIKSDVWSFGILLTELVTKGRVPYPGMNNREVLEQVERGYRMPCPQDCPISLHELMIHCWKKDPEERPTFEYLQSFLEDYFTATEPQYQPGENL
Summary of the method: as §1

BTK = target: T37, BTK (Homo sapiens, UniProt Q06187)
T37 construct: purchased DiscoverX scanMAX Kinase panel
Summary of the method: as §1

MST3 = target: T38, MST3 (Homo sapiens, UniProt Q9Y6E0)
T38 construct: purchased DiscoverX scanMAX Kinase panel
T38 sequence (Q9Y6E0 whole entry): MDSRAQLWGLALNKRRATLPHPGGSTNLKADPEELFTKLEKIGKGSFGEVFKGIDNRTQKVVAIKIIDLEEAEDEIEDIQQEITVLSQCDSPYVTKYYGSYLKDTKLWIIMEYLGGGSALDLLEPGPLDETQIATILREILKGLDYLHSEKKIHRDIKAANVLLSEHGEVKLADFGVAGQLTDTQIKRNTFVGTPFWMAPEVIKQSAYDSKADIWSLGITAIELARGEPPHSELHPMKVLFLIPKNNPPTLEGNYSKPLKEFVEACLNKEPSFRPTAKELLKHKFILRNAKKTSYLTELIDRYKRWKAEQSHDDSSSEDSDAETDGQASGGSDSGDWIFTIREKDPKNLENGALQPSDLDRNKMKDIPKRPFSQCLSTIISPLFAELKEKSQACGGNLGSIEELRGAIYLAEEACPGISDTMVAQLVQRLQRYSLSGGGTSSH
Summary of the method: as §1

T2 sequence (P51813 whole entry): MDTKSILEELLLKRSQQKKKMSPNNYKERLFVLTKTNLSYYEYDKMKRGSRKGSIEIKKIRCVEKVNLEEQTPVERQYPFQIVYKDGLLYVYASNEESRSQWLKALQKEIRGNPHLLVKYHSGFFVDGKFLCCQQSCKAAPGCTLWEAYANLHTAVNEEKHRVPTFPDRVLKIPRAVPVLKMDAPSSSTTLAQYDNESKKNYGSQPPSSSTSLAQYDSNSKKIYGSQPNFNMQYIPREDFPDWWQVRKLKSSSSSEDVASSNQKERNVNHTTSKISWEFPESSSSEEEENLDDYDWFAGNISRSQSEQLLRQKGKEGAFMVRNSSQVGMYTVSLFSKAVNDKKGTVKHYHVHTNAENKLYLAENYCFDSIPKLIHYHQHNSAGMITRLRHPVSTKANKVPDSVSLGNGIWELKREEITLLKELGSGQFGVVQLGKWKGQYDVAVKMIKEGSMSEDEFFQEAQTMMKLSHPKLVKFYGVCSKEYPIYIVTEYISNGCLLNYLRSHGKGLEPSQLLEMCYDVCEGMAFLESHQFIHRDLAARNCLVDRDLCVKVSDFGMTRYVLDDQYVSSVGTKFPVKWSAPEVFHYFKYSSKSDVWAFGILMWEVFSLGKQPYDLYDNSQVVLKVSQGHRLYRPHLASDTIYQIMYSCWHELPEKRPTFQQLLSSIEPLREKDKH

SMILES | % Cont @ 1 uM (EGFR(G719C)) | remaining binding at 1 µM (BMX) | remaining binding at 1 µM (RIPK2) | remaining binding at 1 µM (TNK1) | remaining binding at 1 µM (p38-gamma) | remaining binding at 1 µM (FGFR2) | remaining binding at 1 µM [1] | remaining binding at 1 µM [2] | remaining binding at 1 µM [3] | remaining binding at 1 µM (MEK5) | remaining binding at 1 µM (FLT3(K663Q)) | percent of control binding at 1 µM (MINK) | remaining binding at 1 µM (PFTAIRE2) | remaining binding at 1 µM (FGFR3) | percent of control binding at 1 µM (PDGFRA) | % Cont @ 1 uM (CIT) | percent of control binding at 1 µM (KIT(D816H)) | remaining binding at 1 µM (AURKB) | remaining binding at 1 µM (TEC) | % Cont @ 1 uM (LOK) | also measured
Cc1cn(-c2cc(NC(=O)c3cc(C#Cc4cnc5c(Nc6cnn(C)c6)cccn45)c(C)cc3F)cc(C(F)(F)F)c2)cn1 [Example 4, 2-fluoro-4-methyl-N-(3-(4-methyl-1H-imidazol-1-yl)-5-(trifluoromethyl)phenyl)-5-((8-((1-methyl-1H-pyrazol-4-yl)amino)imidazo[1,2-a]pyridin-3-yl)ethynyl)benzamide] | 56% | 3.6% | 37% | 31% | 88% | 61% | 2.8% | 22% | 10% | 1.2% | 2.8% | 88% | 76% | 88% | 11% | 0.45% | 53% | 57% | 46% | 0.2% | remaining binding at 1 µM (EPHA3): 8.4%; % Cont @ 1 uM (EGFR(E746-A750del)): 56%; remaining binding at 1 µM (AURKC): 39%; remaining binding at 1 µM (CDKL2): 14%; remaining binding at 1 µM (TRKB): 7.7%; % Cont @ 1 uM (EPHB2): 32%; remaining binding at 1 µM (TRKC): 1.4%; remaining binding at 1 µM (CDC2L2): 83%; % Cont @ 1 uM (EGFR(G719S)): 65%; % Cont @ 1 uM (FLT3(ITD, F691L)): 37%; remaining binding at 1 µM (YSK4): 3%; remaining binding at 1 µM (EPHA4): 28%; remaining binding at 1 µM (ABL1-phosphorylated): 8.4%; remaining binding at 1 µM (MKNK1): 78%; remaining binding at 1 µM (MERTK): 3.3%; remaining binding at 1 µM (FLT3(D835V)): 25%; remaining binding at 1 µM (FYN): 32%; % Cont @ 1 uM (BTK): 38%; % Cont @ 1 uM (MST3): 70%
Cc1cn(-c2cc(NC(=O)c3cc(C#Cc4cnc5c(Nc6cnn(C)c6)cccn45)c(C)cc3F)cc(C(C)(C)C#N)c2)cn1 [Example 1, N-(3-(2-cyanopropane-2-yl)-5-(4-methyl-1H-imidazol-1-yl)phenyl)-2-fluoro-4-methyl-5-((8-((1-methyl-1H-pyrazol-4-yl)amino)imidazo[1,2-a]pyridin-3-yl)ethynyl)benzamide] | 5.2% | 6.7% | 3% | 30% | 17% | 30% | 50% | 9.2% | 8.9% | 0% | 10.8% | 2.4% | 4.3% | 23% | 2% | 0.1% | 12% | 26% | 1.3% | 0.05% | remaining binding at 1 µM (EPHA3): 4%; % Cont @ 1 uM (EGFR(E746-A750del)): 0%; remaining binding at 1 µM (AURKC): 27%; remaining binding at 1 µM (CDKL2): 0.7%; remaining binding at 1 µM (TRKB): 0.6%; % Cont @ 1 uM (EPHB2): 6.3%; remaining binding at 1 µM (TRKC): 0.05%; remaining binding at 1 µM (CDC2L2): 24%; % Cont @ 1 uM (EGFR(G719S)): 16%; % Cont @ 1 uM (FLT3(ITD, F691L)): 5.1%; remaining binding at 1 µM (YSK4): 0.3%; remaining binding at 1 µM (EPHA4): 26%; remaining binding at 1 µM (ABL1-phosphorylated): 0.45%; remaining binding at 1 µM (MKNK1): 23%; remaining binding at 1 µM (MERTK): 6.1%; remaining binding at 1 µM (FLT3(D835V)): 0.25%; remaining binding at 1 µM (FYN): 3%; % Cont @ 1 uM (BTK): 2.2%; % Cont @ 1 uM (MST3): 20%

From patent US12673945B2, “3-((8-((1H-pyrazol-4-yl)amino)imidazo[1,2-a]pyridin-3-yl)ethinyl)-n-phenylbenzamide derivative, method for preparing same, and pharmaceutical composition containing same as active ingredient for prevention or treatment of cancer” (DAEGU-GYEONGBUK MEDICAL INNOVATION FOUNDATION, priority 2020, dated 2026)
